In paper PMC2914821 (Biochemistry, 2010):
Where two headings read alike, the source gives them in different places.

Columns and labels:
ferrous Ns H-NOX = assay: CO and NO binding kinetics to ferrous Ns H-NOX; set-up: species or system Nostoc sp; conditions: for kOFF: 6c-CO complex / 1st 6c-NO complex, 20 – 25 °C
sGC = conditions: cited from earlier work; for Kd / kOFF: sGC
ferric sGC = conditions: cited from earlier work
[1] = ferrous, 37 °C; cited from earlier work

## [C-]#[O+] [CO, carbon monoxide]
Ferrous Ns H-NOX
  rate of reaction with CO, Ns H-NOX relative to sGC: 100 fold
Ferrous Ns H-NOX; 5 µM ferrous Ns H-NOX, [CO] 25 to 166 µM, 24 °C, two separately purified samples
  second-order rate constant of CO binding: 2 – 3 × 10^6 M^−1s^−1
Ferrous Ns H-NOX; 3.6 s^-1/3.0 µM^−1s^−1
  Kd for CO binding, ratio koff/kon: 1.2 µM
Ferrous Ns H-NOX; 24 °C
  CO association rate constant (free linear fit): 2.9e+06 M⁻¹ s⁻¹
  CO dissociation rate constant (koff) from y-axis intercept of kobs versus [CO]: 23 s⁻¹
Ferrous Ns H-NOX; Ns H-NOX
  kOFF: 3.6 s⁻¹
sGC; 4 °C
  Kd: 260 µM
  kOFF: 10.7 s⁻¹

## nitric oxide [NO]
Ferrous Ns H-NOX; EPR, large excess (1 atm) of NO gas, wild type Ns H-NOX
  fraction of 5c NO-heme in final NO-heme complex: ~ 40%
Ferrous Ns H-NOX; Ns H-NOX
  overall equilibrium affinity for NO relative to CO: 4 orders of magnitude
  kOFF: 0.05 s⁻¹
Ferrous Ns H-NOX; excess NO, independent of [NO]
  first order rate constant of 6c-NO to 5c-NO conversion, first phase: ~ 7 s^−1
  first order rate constant of 6c-NO to 5c-NO conversion, second phase: 0.3 s⁻¹
Ferrous Ns H-NOX; flow-flash, 436 and 418 nm, 24 °C
  NO association rate constant for first 6c-NO complex: 200 – 400 µM^−1s^−1 and ≈ 300 µM^−1s^−1
Ferrous Ns H-NOX; initial 6c-NO complex mixed with 0.5 mM CO and 25 mM dithionite
  NO dissociation first order rate constant, minor slow phase: 0.007 s⁻¹
Ferrous Ns H-NOX; read-out: apparent Kd for first NO binding step
  Kd: ~0.00017 µM
sGC; 5c (off), 10 °C
  kOFF: 0.0006 s⁻¹
sGC; 10 °C, calculated as kOFF/kON
  Kd: 4.2e-06 µM

## [N-]=[N+]=[N-] [N3^−, azide]
Ferric sGC
  Kd: 26000 µM
Ferric Ns H-NOX
  observed rate constant of azide binding: ~ 0.015 s^−1

## O=O [O2, oxygen]
sGC
  O2 binding (comment): No O2 binding at 1 atm, 10 °C

B1: β2(1–217): truncated sGC β2 heme domain (protein, UniProt O75343 1-217, looked up, fragment)
chain: MSGYDRMLRTLGGNLMEFIENLDALHSYLALSYQEMNAPSFRVERGADGKMFLHYYSDRSGLCHIVPGIIEAVAKDFFDIDVIMDILDMNEEVERTGKKEHVVFLIVQKAHRKMRKTKPKRLQDSQGMERDQEALQAAFLKMKEKYLNVSACPVKKSHWDVVRSIVMFGKGHLMNTFEPIYPERLWIEEKTFCNAFPFHIVFDESLQVKQARVNIQK
modifications: heme domain
[1]
  rate of autooxidation: 0.18 h⁻¹

B2: β1(1–194): truncated sGC β1 heme domain corresponding to the H-NOX domain (protein, UniProt Q02153 1-194, looked up, fragment)
chain: MYGFVNHALELLVIRNYGPEVWEDIKKEAQLDEEGQFLVRIIYDDSKTYDLVAAASKVLNLNAGEILQMFGKMFFVFCQESGYDTILRVLGSNVREFLQNLDALHDHLATIYPGMRAPSFRCTDAEKGKGLILHYYSEREGLQDIVIGIIKTVAQQIHGTEIDMKVIQQRNEECDHTQFLIEEKESKEEDFYED
modifications: H-NOX domain
[1]
  rate of autooxidation: 4.3 h⁻¹
